Key:
[1] = test system: Plasmodium berghei NK 65 strain; experiment: animal or person; assay type: in vivo; details: for Survival days (mean survival days, treatment group minus control group) / Recovery Rate (suppression): 4 days; for Recovery Rate (suppression): P. berghei infected ICR mice; for Acute toxicity in treated mice: 25 mg/kg/day dose
From the text: For a test to evaluate therapeutic effect of the compound, 4-day suppressive test which is commonly used for in vivo test to evaluate activity of anti-malaria compound was used. In this experiment, rodent malaria protozoa (Plasmodium berghei NK 65 strain) were used. The infected blood was collected from 5-weeks age (SPF) ICR strain male mouse which were infected intraperitoneally and successively cultured. From the caudal vein of the infected mouse, blood was collected to calculate infection rate. After confirming that infection rate was adequately elevated (10% to 20% infection), the malaria infected blood was collected from the heart of the mouse. The infection rate and count of the red blood cells (cells/mL) were calculated. The infected red blood cell was diluted with PBS buffer to achieve […] protozoa per 0.2 mL dose. The infected cells were injected to the caudal vein of uninfected mouse (ICR strain, male, 5-weeks age) to cause infection. Five mice were made into one group, and the test compound was administered in predefined concentration. From 2 hours after infection, the compound was administered every 24 hours for straight 4 days.
The compound of the invention to be used in this test was dissolved in saline (Otsuka Pharmaceutical Co., Ltd.) to obtain test solution of predefined concentration. When the compound was not dissolved in saline, it was dissolved in SSV (saline containing 0.5% sodium=carboxymethyl cellulose, 0.5% benzyl alcohol, 0.4% Tween 80) to prepare test solution. For the control group (non-treatment group), only saline (Otsuka) was administered. Positive controls S-1 to S-5 were dissolved in saline (Otsuka) or SSV in predetermined concentration to prepare test solution. When the compound was not dissolved in saline, it was dissolved in SSV. After measuring weight of each mouse, the dose for each mouse was calculated to achieve 5.0 to 40 mg concentration for weight1 kg.
Five mice were made into one group, and the test compound was administered intraperitoneally at predefined concentration. From 2 hours after infection, the compound was administered every 24 hours for straight 4 days. Subsequent to the 24 hours after last treatment, blood was collected from the tail of the mouse to prepare thin layer smear in order to count malaria protozoa infection in the treatment group and the control group under microscope. The mice showing maximum value and minimum value were excluded from the average calculation (average was calculated for three mice), to determine malaria protozoa infection rate (Parasitemia).
Using malaria protozoa infection rate thus calculated, recovery rate obtained from the test compound (suppression) was determined.
Recovery rate: suppression(%)=(b−a)/b×100 a: Protozoa infection rate in the treatment group b: Protozoa infection rate in the control group Mean survival days: MSD(day)=c−d c: Average days from the initial treatment (date of malaria infection) to the date of death for the treatment group (5 mice) d: Average days from the date of malaria infection to the date of death for the non-treatment (control) group (5 mice) […]
Tables 5 to 7 illustrate the recovery rate (%) and survival days (day) of malaria infected mice treated with intraperitoneal injection of the test compound and the control compound at predefined concentration. The meaning of symbols in the table is as follows.

[2] = test system: Rat-derived L6 cells (rat skeletal myoblast cell); experiment: Rat L6 cell proliferation inhibition test; assay type: cell-based; details: Table 1, 72 hours, Alamar Blue
Protocol: Rat-derived L6 cells (rat skeletal myoblast cell) were used for this test. […] The sample was cultured under CO2 concentration 5% and temperature 37° C. Either the composition of the invention or control was dissolved into DMSO, to prepare test solutions having predefined concentration.
The samples were precultured until logarithmic growth phase was reached. Then the culture was transferred to each well in a 96-well culture plate, and either test solution containing test compound at predefined concentration or DSMO without compound was added. The test solution was duplicated.
The plate was cultured in an incubator for 72 hours, to examine proliferation inhibition activity. The activity was examined as follows. Alamar Blue water solution 10 μL was added to each well, and culture was continued for 2 hours. Next, the culture plate was mounted on a fluorescence microplate reader (Spectramax Gemeni XS; Molecular Devices Corporation, U.S.), and irradiated with excitation wavelength 536 nm to determine fluorescence at 588 nm. The survival rate of L6 cells in the test solution sample and control sample was calculated.
Proliferation inhibition rate(%)={(C−A)/(B−A)}×100
A: Initial cell count B: Cell count in control after 3 days C: Cell count in test solution after 3 days

[3] = test system: Plasmodium Falciparum k1 strain; experiment: Chloroquine-resistant tropical malaria protozoa proliferation inhibition screening test; assay type: cell-based; details: chloroquine-resistant K1 strain; 3H-hypoxanthine uptake
Protocol: In this experiment, Plasmodium Falciparum k1 strain protozoa were used. The medium used in the experiment was filter-sterilized RPMI-1640 medium. To the medium human serum was added to achieve 5% concentration. The protozoa was cultured under condition of O2 concentration 3%, CO2 concentration 4%, N2 concentration 93%, and temperature 37° C.
The cultured malaria infected red blood cells were collected by centrifugation, diluted with non-infected red blood cells, to achieve initial infection rate 0.15%. The hematocrit was 2.5%.
To each well in a 96-well culture plate, 200 μL malaria infected culture was added, and either test solution containing test compound at predefined concentration or DMSO having no test compound was added. Each test solution was prepared in duplicate. After 48 hours culture under 37° C., hypoxanthine labeled with radioactive tritium (^3H) of 0.5 μCi was added to each well. After culturing under same condition for 24 hours, the product was collected on a glass fiber filter and washed. The intensity of radiation was measured by Beta plate liquid scintillation counter (Wallac Inc.), to determine malaria protozoa infection rate in test compound samples and control samples.
Using the malaria protozoa infection rate, the proliferation inhibition rate was calculated according to the following equation to determine 50% proliferation inhibition concentration (EC50).
Proliferation inhibition rate(%)={1−(b−a)/(c−a)}×100
a: initial infection rate b: infection rate of test compound solution c: infection rate of the control

[4] = Plasmodium berghei, ip, 96 h, read-out: Recovery Rate (suppression)
[5] = dose 25 mg/kg/d intraperitoneally
[6] = dose 5.0 mg/kg/d intraperitoneally

CCn1c(=O)/c(=C2\C=CC=CN2C)s/c1=C1\S/C(=N\c2sc3cc(Cl)ccc3[n+]2C)N(Cc2ccccc2)C1=O [Compound B-16]
inhibition in vivo at 20 mg/kg/day [1, 4]: 97.4%

CCn1c(=O)/c(=c2/s/c(=C3/Sc4ccccc4N3C)c(=O)n2CC)s/c1=C\c1sc2ccccc2[n+]1C [Compound S-5, reference compound]
inhibition in vivo at 5 mg/kg/day [1, 4]: 41%

CCn1c(=O)/c(=C2\C=CC=CN2C)s/c1=C1\S/C(=N\c2sc3cc(Cl)ccc3[n+]2C)N(c2ccccc2)C1=O [Compound B-11]
inhibition in vivo at 25 mg/kg/day [1, 4]: 82.7%

CCn1c(=O)/c(=C2\C=CC=CN2C)s/c1=C1\S/C(=N\c2scc(-c3ccc(Cl)cc3)[n+]2C)N(c2ccccc2)C1=O [Compound B-13]
inhibition in vivo at 25 mg/kg/day [1, 4]: 95.6%

CCn1c(=O)/c(=C2\SCCN2C)s/c1=C1\S/C(=N\c2scc[n+]2C)N(Cc2ccccc2)C1=O [Compound B-23]
Survival days (mean survival days, treatment group minus control group) [1, 5]: 7.0 days | Recovery Rate (suppression) [1, 5]: 85.1%

C=CCN1C(=O)/C(=c2/s/c(=C3/SCCN3C)c(=O)n2CC)S/C1=N\c1scc[n+]1C [Compound B-41]
Survival days (mean survival days, treatment group minus control group) [1, 5]: 1.3 days | Recovery Rate (suppression) [1, 5]: 58.5%

CCN1C(=O)/C(=c2/s/c(=C3/SCCN3C)c(=O)n2CC)S/C1=N\c1scc[n+]1C [Compound B-27]
Survival days (mean survival days, treatment group minus control group) [1, 5]: 2.0 days | Recovery Rate (suppression) [1, 5]: 55.4%

CCN1C(=O)/C(=C2\C=CC=CN2C)S/C1=N\c1cc[n+](C)c2cc(Cl)ccc12 [Compound A-15]
inhibition in vivo at 25 mg/kg/day [1, 4]: 60.3% | Survival days (mean survival days, treatment group minus control group) [1, 5]: 2.0 days

CCN1C(=O)/C(=c2/s/c(=C3/SCCN3C)c(=O)n2CC)S/C1=N\c1sc2ccccc2[n+]1C [Compound B-31]
Survival days (mean survival days, treatment group minus control group) [1, 5]: 1.7 days | Recovery Rate (suppression) [1, 5]: 90.6%

CCn1c(=O)/c(=C2\Sc3ccccc3N2C)s/c1=C\c1cccc[n+]1CC [Compound S-1, reference compound]
inhibition in vivo at 10 mg/kg/day [1, 4]: 30% | Toxicity noted [1, 5]: toxic

C=C[C@H]1C[N@@]2CC[C@H]1C[C@H]2[C@H](O)c1ccnc2ccc(OC)cc12 [Quinine, reference compound]
inhibition in vivo at 10 mg/kg/day [1, 4]: 18.6% | Survival days (mean survival days, treatment group minus control group) ([1]; dose 10 mg/kg/d intraperitoneally): 1.0 days

CCN1C(=O)/C(=C/C=C2\Sc3ccccc3N2C)S/C1=N\c1c(O)ccc[n+]1C [Compound C-3]
Recovery Rate (suppression) [1, 6]: 43.9%

CCN1C(=O)/C(=C/C=C2\Sc3ccccc3N2C)S/C1=N\c1sc2cc(Cl)ccc2[n+]1C [Compound C-2]
Recovery Rate (suppression) [1, 6]: 32.1% | EC50 cytotoxicity L6 [2]: 11.33 µg/mL | EC50 P. falciparum K1 [3]: 0.02495 µg/mL

CCN1C(=O)/C(=c2/s/c(=c3/nc4c(o3)=CC=CN4C)c(=O)n2CC)S/C1=N\c1scc[n+]1C [Compound B-20]
Survival days (mean survival days, treatment group minus control group) [1, 5]: 6.3 days | Recovery Rate (suppression) [1, 5]: 56.1% | EC50 cytotoxicity L6 [2]: 69.34 µg/mL | EC50 P. falciparum K1 [3]: 0.017 µg/mL

CCN1C(=O)/C(=C/C=C2\Sc3ccccc3N2C)S/C1=N\c1scc(-c2ccc(Cl)cc2)[n+]1C [Compound C-4]
inhibition in vivo at 5 mg/kg/day [1, 4]: 37.9%

CCn1c(=O)/c(=C2\Sc3ccc4ccccc4c3N2C)s/c1=C\c1cccc[n+]1C [Compound S-4, reference compound]
Acute toxicity in treated mice [1]: caused death | inhibition in vivo at 5 mg/kg/day [1, 4]: 17.1% | inhibition in vivo at 10 mg/kg/day [1, 4]: 36% | Toxicity noted [1, 5]: toxic

CCn1c(=O)/c(=C2\SCCN2C)s/c1=C1\S/C(=N\c2sc3cc(Cl)ccc3[n+]2C)N(c2ccc(OC)cc2)C1=O [Compound B-26]
Survival days (mean survival days, treatment group minus control group) [1, 5]: 2.0 days | Recovery Rate (suppression) [1, 5]: 64.3%

CCN1C(=O)/C(=c2/s/c(=C3/C=CC=CN3C)c(=O)n2CC)S/C1=N\c1scc[n+]1C [Compound B-19]
EC50 cytotoxicity L6 [2]: 27.92 µg/mL | EC50 P. falciparum K1 [3]: 0.0166 µg/mL

CCn1c(=O)/c(=C2\C=CC=CN2C)s/c1=C1\S/C(=N\c2sc3cc(Cl)ccc3[n+]2C)N(c2ccc(OC)cc2)C1=O [Compound B-17]
inhibition in vivo at 25 mg/kg/day [1, 4]: 73.1% | Survival days (mean survival days, treatment group minus control group) [1, 5]: 6.8 days

CCN1C(=O)/C(=C2\C=Cc3ccccc3N2C)S/C1=N\c1cccc[n+]1C [Compound A-14]
inhibition in vivo at 10 mg/kg/day [1, 4]: 64.5%

C=CCn1c(=O)/c(=C2\Sc3ccccc3N2C)s/c1=C\c1cccc[n+]1C [Compound S-2, reference compound]
Acute toxicity in treated mice [1]: caused death | inhibition in vivo at 10 mg/kg/day [1, 4]: 27%

CCn1c(=O)/c(=c2\nc3c(o2)=CC=CN3C)s/c1=C1\S/C(=N\c2sc3cc(Cl)ccc3[n+]2C)N(Cc2ccccc2)C1=O [Compound B-18]
Survival days (mean survival days, treatment group minus control group) [1, 5]: 7.0 days | Recovery Rate (suppression) [1, 5]: 22.39%

C=CCn1c(=O)/c(=C2\C=CC=CN2C)s/c1=c1\s/c(=C\c2cccc[n+]2C)n(CC)c1=O [Compound S-6, reference compound]
inhibition in vivo at 50 mg/kg/day [1, 4]: 25.9% | Survival days (mean survival days, treatment group minus control group) ([1]; dose 50 mg/kg/d intraperitoneally): 0 days

CCn1c(=O)/c(=C2\C=CC=CN2C)s/c1=C1\S/C(=N\c2scc[n+]2C)N(Cc2ccccc2)C1=O [Compound B-21]
Survival days (mean survival days, treatment group minus control group) [1, 5]: 7.0 days | Recovery Rate (suppression) [1, 5]: 80.4%

C=CCN1C(=O)/C(=c2/s/c(=C3/C=CC=CN3C)c(=O)n2CC)S/C1=N\c1scc[n+]1C [Compound B-40]
EC50 cytotoxicity L6 [2]: 27.38 µg/mL

C=CCN1C(=O)/C(=c2/s/c(=C3/C=CC=CN3C)c(=O)n2CC)S/C1=N\c1sc2cc(Cl)ccc2[n+]1C [Compound B-38]
Recovery Rate (suppression) [1, 5]: 95.7%

Reference: patent US20090076067A1, “PHARMACEUTICAL COMPOSITION COMPRISING AZARHODACYANINE COMPOUND AS ACTIVE INGREDIENT” (priority 2005, published 2009)
